Counter-ions that a name gives are not always drawn.
Experiments:
Assay type in all cases: biochemical
human ME3 enzyme = target: T1, human ME3 enzyme (Homo sapiens, UniProt Q16798); test: ME3 inhibition assay (diaphorase/resazurin coupled fluorescence); details: 10 μM compound concentration; read-out: Malic Enzyme 3 % inhibition (10 μM)
T1 sequence (Q16798 1-604): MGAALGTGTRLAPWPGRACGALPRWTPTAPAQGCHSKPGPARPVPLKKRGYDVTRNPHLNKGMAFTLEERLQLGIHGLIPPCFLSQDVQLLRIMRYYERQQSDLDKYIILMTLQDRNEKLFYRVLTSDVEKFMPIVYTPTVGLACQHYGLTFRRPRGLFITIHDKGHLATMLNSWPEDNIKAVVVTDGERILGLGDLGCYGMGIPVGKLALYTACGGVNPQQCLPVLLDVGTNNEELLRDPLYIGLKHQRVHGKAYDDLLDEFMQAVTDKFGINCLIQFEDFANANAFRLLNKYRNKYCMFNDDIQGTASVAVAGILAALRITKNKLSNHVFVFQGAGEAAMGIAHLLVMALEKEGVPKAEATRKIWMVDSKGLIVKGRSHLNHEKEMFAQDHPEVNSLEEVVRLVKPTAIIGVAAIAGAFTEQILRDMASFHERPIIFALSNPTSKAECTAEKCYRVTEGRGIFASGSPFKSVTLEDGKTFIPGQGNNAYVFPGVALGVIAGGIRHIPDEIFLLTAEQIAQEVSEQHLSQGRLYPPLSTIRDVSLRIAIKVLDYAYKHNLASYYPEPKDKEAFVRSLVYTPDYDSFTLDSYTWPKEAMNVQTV
In short: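 Coupled read-out: NADPH made by human ME3 (20 nM stock) drives diaphorase conversion of resazurin (50 μM) to resorufin; buffer 50 mM Tris-HCl pH 7.5, 10 mM MnCl2, 3 mM L-malate.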

human ME2 enzyme = human ME2 enzyme (Homo sapiens, UniProt P23368); test: ME2 inhibition assay (diaphorase/resazurin coupled fluorescence); details: 10 μM compound concentration; read-out: Malic Enzyme 2 % inhibition (10 μM)
human ME2 enzyme, sequence (P23368 19-584): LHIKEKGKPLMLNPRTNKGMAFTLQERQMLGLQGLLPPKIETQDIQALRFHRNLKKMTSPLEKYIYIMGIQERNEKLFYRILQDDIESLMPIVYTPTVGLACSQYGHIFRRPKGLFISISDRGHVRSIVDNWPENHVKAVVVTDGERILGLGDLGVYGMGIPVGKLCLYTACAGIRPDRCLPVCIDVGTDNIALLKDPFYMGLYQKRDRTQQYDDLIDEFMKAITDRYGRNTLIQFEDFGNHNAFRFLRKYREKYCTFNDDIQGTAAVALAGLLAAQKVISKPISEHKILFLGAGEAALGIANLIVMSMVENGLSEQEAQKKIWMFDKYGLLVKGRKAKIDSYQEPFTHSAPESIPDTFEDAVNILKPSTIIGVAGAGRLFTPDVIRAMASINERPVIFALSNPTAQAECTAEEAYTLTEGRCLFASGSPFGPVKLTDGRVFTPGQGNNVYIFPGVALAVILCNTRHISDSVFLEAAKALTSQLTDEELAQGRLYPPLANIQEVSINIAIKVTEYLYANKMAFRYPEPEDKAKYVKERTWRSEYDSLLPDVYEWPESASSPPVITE
In short: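 Human ME2 (10 μL of 60 nM) was preincubated 5 min at room temperature with compound (10 μM) in 50 mM Tris-HCl pH 7.5, 10 mM MnCl2, 7 mM L-malate, 50 μM resazurin and 0.025 mg/ml diaphorase. The reaction was started with 10 μL of 2 mM β-NAD+ and run 2 hours at room temperature. Resorufin fluorescence (ex 540/em 600 nm) was normalized to enzyme-only (100%) and no-enzyme (0%) controls as % activity.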

human ME1 enzyme = target: T2, human ME1 enzyme (Homo sapiens, UniProt P48163); test: ME1 inhibition assay (diaphorase/resazurin coupled fluorescence); details: 10 μM compound concentration; read-out: Malic Enzyme 1 % inhibition (10 μM)
T2 sequence (P48163 1-572): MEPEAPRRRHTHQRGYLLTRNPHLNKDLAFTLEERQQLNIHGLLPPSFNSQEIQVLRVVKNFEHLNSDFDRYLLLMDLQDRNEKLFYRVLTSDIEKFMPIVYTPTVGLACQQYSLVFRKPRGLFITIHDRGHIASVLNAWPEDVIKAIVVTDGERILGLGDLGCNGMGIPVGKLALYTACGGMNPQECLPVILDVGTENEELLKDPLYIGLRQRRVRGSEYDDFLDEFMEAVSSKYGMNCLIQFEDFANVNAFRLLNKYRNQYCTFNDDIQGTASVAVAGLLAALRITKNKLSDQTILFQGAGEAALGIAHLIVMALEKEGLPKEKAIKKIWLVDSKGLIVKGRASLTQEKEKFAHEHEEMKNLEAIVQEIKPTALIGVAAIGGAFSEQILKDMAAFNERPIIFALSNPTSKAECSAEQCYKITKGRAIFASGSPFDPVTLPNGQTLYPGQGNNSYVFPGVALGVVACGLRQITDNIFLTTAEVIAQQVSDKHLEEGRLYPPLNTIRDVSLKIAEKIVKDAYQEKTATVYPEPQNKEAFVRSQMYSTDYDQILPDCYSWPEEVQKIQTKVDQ
In short: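 Compounds at 10 μM preincubated 15 min in 50 mM Tris-HCl pH 7.5, 10 mM MnCl2, 2 mM L-malate, 10 μM resazurin, 0.01 mg/ml diaphorase, then human ME1 added for 5 min; reaction started with NADP+ and run 2 h at room temperature. Resorufin fluorescence (ex 540/em 600 nm) normalized to enzyme-only (100%) and no-enzyme (0%) controls.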

| SMILES | inhibition at 10 µM (human ME3 enzyme) [%] | inhibition at 10 µM (human ME2 enzyme) [%] | inhibition at 10 µM (human ME1 enzyme) [%] |
| --- | --- | --- | --- |
| O=C(CCc1c(F)cccc1F)N1CCN(c2ccc(O)cn2)CC1 [I.157, 3-(2,6-Difluoro-phenyl)-1-[4-(5-hydroxy-pyridin-2-yl)-piperazin-1-yl]-propan-1-one] | > 90 | > 90 | > 90 |
| O=C(Cc1c[nH]c2cc(F)ccc12)N1CCN(c2ccc(O)cn2)CC1 [I.158, 2-(6-Fluoro-1H-indol-3-yl)-1-[4-(5-hydroxy-pyridin-2-yl)-piperazin-1-yl]-ethanone] | > 90 | > 90 | > 90 |
| O=C(Cc1c[nH]c2ccc(Cl)cc12)N1CCN(c2ccc(O)cn2)CC1 [I.159, 2-(5-Chloro-1H-indol-3-yl)-1-[4-(5-hydroxy-pyridin-2-yl)-piperazin-1-yl]-ethanone] | > 90 | > 90 | > 90 |
| O=C(Cc1c[nH]c2cc(F)c(F)cc12)N1CCN(c2ccc(O)cn2)CC1 [I.160, 2-(5,6-Difluoro-1H-indol-3-yl)-1-[4-(5-hydroxy-pyridin-2-yl)-piperazin-1-yl]-ethanone] | > 90 | > 90 | > 90 |
| CC(C)(CC(=O)N1CCN(c2ccc(O)cn2)CC1)c1ccc(F)cc1 [I.161, 3-(4-Fluoro-phenyl)-1-[4-(5-hydroxy-pyridin-2-yl)-piperazin-1-yl]-3-methyl-butan-1-one] | > 90 | > 90 | > 90 |
| CC(C)(Sc1ccccc1Br)C(=O)N1CCN(c2ccc(O)cn2)CC1 [I.162, 2-(2-Bromo-phenyl-sulfanyl)-1-[4-(5-hydroxy-pyridin-2-yl)-piperazin-1-yl]-2-methyl-propan-1-one] | > 90 | > 90 | > 90 |
| O=C(CSc1ccc(F)cc1)N1CCN(c2ccc(O)cn2)CC1 [I.163, 2-(4-Fluoro-phenyl-sulfanyl)-1-[4-(5-hydroxy-pyridin-2-yl)-piperazin-1-yl]-ethanone] | > 90 | > 90 | > 90 |
| O=C(COc1ccc(F)cc1)N1CCN(c2ccc(O)cn2)CC1 [I.164, 2-(4-Fluoro-phenoxy)-1-[4-(5-hydroxy-pyridin-2-yl)-piperazin-1-yl]-ethanone] | > 90 | > 90 | > 90 |
| Cn1cc(CC(=O)N2CCN(c3ccc(O)cn3)CC2)c2cc(F)ccc21 [I.165, 2-(5-Fluoro-1-methyl-indol-3-yl)-1-[4-(5-hydroxy-pyridin-2-yl)-piperazin-1-yl]-ethanone] | > 90 | > 90 | > 90 |
| Cc1[nH]c2ccc(F)cc2c1CC(=O)N1CCN(c2ccc(O)cn2)CC1 [I.166, 2-(5-Fluoro-2-methyl-1H-indol-3-yl)-1-[4-(5-hydroxy-pyridin-2-yl)-piperazin-1-yl]-ethanone] | > 90 | > 90 | > 90 |
| O=C(Cc1c[nH]c2c(F)cc(F)cc12)N1CCN(c2ccc(O)cn2)CC1 [I.167, 2-(5,7-Difluoro-1H-indol-3-yl)-1-[4-(5-hydroxy-pyridin-2-yl)-piperazin-1-yl]-ethanone] | > 90 | > 90 | > 90 |
| O=C(C(=O)N1CCN(c2ccc(O)cn2)CC1)c1c[nH]c2ccc(F)cc12 [I.168, 1-(5-Fluoro-1H-indol-3-yl)-2-[4-(5-hydroxy-pyridin-2-yl)-piperazin-1-yl]-ethane-1,2-dione] | > 90 | > 90 | > 90 |
| CC(C)(C(=O)N1CCN(c2ccc(O)cn2)CC1)c1c[nH]c2ccc(F)cc12 [I.169, 2-(5-Fluoro-1H-indol-3-yl)-1-[4-(5-hydroxy-pyridin-2-yl)-piperazin-1-yl]-2-methyl-propan-1-one] | > 90 | > 90 | > 90 |
| O=C(CCc1cc(F)c(F)c(F)c1)N1CCN(c2ccc(O)cn2)CC1 [I.170, 1-[4-(5-Hydroxy-pyridin-2-yl)-piperazin-1-yl]-3-(3,4,5-trifluoro-phenyl)-propan-1-one] | > 90 | > 90 | > 90 |
| O=C(Cc1cc(F)c(F)c(F)c1)N1CCN(c2ccc(O)cc2)CC1 [I.171, 1-[4-(4-Hydroxy-phenyl)-piperazin-1-yl]-2-(3,4,5-trifluoro-phenyl)-ethanone] | > 90 | > 90 | > 90 |
| C=CC(=O)NC(CC(=O)N1CCN(c2ccc(O)cn2)CC1)c1ccccc1 (stereo not drawn) [I.172, N-{3-[4-(5-Hydroxy-pyridin-2-yl)-piperazin-1-yl]-3-oxo-1-phenyl-propyl}-acrylamide] | > 90 | > 90 | 50 to 69 |
| CC(C)(CC(=O)N1CCN(c2ccc(O)cc2)CC1)c1ccccc1 [I.173, 1-[4-(4-Hydroxy-phenyl)-piperazin-1-yl]-3-methyl-3-phenyl-butan-1-one hydrochloride salt] | > 90 | > 90 | 70 to 89 |
| O=C(Cc1c[nH]c2cc(Cl)c(Cl)cc12)N1CCN(c2ccc(O)cn2)CC1 [I.174, 2-(5,6-Dichloro-1H-indol-3-yl)-1-[4-(5-hydroxy-pyridin-2-yl)-piperazin-1-yl]-ethanone] | > 90 | > 90 | > 90 |
| Cc1[nH]c2ccc(Cl)cc2c1CC(=O)N1CCN(c2ccc(O)cn2)CC1 [I.175, 2-(5-Chloro-2-methyl-1H-indol-3-yl)-1-[4-(5-hydroxy-pyridin-2-yl)-piperazin-1-yl]-ethanone] | > 90 | > 90 | > 90 |
| Cc1[nH]c2cc(Cl)c(Cl)cc2c1CC(=O)N1CCN(c2ccc(O)cn2)CC1 [I.176, 2-(5,6-Dichloro-2-methyl-1H-indol-3-yl)-1-[4-(5-hydroxy-pyridin-2-yl)-piperazin-1-yl]-ethanone] | > 90 | > 90 | > 90 |
